Measurements reported in patent US20160193216A1 (Nimbus Iris, Inc., priority 2012, published 2016).
pIC50: −log10 of the molar value. Structures can show the parent of a compound that is named as a salt. Where two headings read alike, the source gives them in different places.

What was measured:
[1] = biological target: T1, IRAK4 (Homo sapiens, UniProt Q9NWZ3); test: IRAK-4 activity inhibition assay (Caliper); assay type: biochemical; settings: 37 μM ATP, 3.5 nM IRAK4
T1 sequence (Q9NWZ3 1-460): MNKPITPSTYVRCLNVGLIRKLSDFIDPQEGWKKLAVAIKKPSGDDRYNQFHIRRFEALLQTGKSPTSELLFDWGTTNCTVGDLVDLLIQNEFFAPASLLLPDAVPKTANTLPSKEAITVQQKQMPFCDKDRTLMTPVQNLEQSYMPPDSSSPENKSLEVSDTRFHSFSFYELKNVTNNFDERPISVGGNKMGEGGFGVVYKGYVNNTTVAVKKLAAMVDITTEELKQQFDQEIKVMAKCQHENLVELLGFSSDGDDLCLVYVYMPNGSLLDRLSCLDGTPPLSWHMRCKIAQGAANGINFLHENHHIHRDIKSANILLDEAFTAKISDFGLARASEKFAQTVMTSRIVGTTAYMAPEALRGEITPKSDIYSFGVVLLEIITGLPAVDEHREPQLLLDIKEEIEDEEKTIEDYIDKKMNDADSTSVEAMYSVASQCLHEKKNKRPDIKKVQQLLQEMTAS

[2] = system: THP-1 cells; test: LPS induced cytokine (TNFα and IL8) production assay in THP-1 cells; assay type: cell-based; settings: Homo sapiens, 300 ng/mL LPS
Method in brief: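 THP-1 cells (100,000/well) pre-incubated 1 hour with compound in 0.3% DMSO, then stimulated with 300 ng/mL LPS. TNFα and IL8 in supernatant measured by HTRF at 5 hours; IL8 and viability also at 16 hours.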

[3] = system: Whole Blood; test: In vitro LPS/R848-induced cytokine production assay in whole blood; assay type: cell-based, human
Protocol: In Vitro LPS/R848/CpG-Induced Cytokine Production Assays in hPBMC or Whole Blood
Compounds of the present invention were also studied in in vitro LPS/R848/CpG-induced cytokine production assays. Exemplary protocols follow.
[…] Cells were seeded in a 96-well plate with 130 ul/well of the cell suspension according to the plate map. 9 ul of 30 mM compound solution was added into the wells in the assigned rows, then serial solutions with 4× dilutions were made. That is, add 9 uL of 100% DMSO into each of the rest wells and take 3 uL of compound solution from the one-step higher concentration solution and mix well with the DMSO. For the second compound master plate, 196 uL of the growth medium (no serum media) were added into each of the wells and 4 uL of the compound solution from the first compound master plate was added and mixed with the media. Cells were treated for 0.5 h by adding 20 uL of the compound and the control solutions prepared in the second master plate to each well according to the plate map. […] Plates were sealed with sealing films and the plates were centrifuged at 3000 rpm at 4 degrees C. for 5 min. The supernatants were transferred, and 100 ul of working Capture antibody solution was added to each well. The plates were sealed and incubated overnight at RT. IL-6, IFN-α or TNF-α detection antibody labeled with biotin: Added 100 uL of the Detection Antibody solution to each well. Covered the plate and incubated for 2 h at RT. Added 100 uL of Streptavidin-HRP solution to each well. Covered the plate and incubate for 20 min at RT in dark. Added 100 uL of Substrate Solution to each well. Incubated for 20 min at RT in dark. Added 50 uL of Stop Solution to each well. Gently tapped the plate to ensure thorough mixing. Determined the optical density of each well immediately, using a microplate reader set to 450 nm and also read at 540 nm or 570 nm for correction if wavelength correction is not available.

[4] = Homo sapiens, LPS 0.1 ug/mL, read-out: TNF-α production IC50
[5] = Homo sapiens, R848 1 uM, read-out: IFN-α production IC50
[6] = R848 1 uM, read-out: TNF-α production IC50

SMILES	pIC50 [1]	pIC50 ([2]; read-out: IL8 production IC50)	pIC50 ([2]; read-out: TNFα production IC50)	pIC50 [3, 4]	pIC50 [3, 5]	pIC50 [3, 6]
CN(C)[C@H]1CC[C@H](Oc2ncnc3sc4c(c23)C[C@@H](C(N)=O)CC4)CC1 [Compound I-233, (12S)-3-[[4-(dimethylamino)cyclohexyl]oxy]-8-thia-4,6-diazatricyclo[7.4.0.0[2,7]]trideca-1(9),2(7),3,5-tetraene-12-carboxamide]	> 5.30	≥ 6.30	≥ 6.30	≤ 6.00	≤ 6.00	≤ 6.00
NC(=O)C[C@H]1CCc2sc3ncnc(O[C@H]4CC[C@H](N5CCCC5)CC4)c3c21 [Compound I-105, 2-[(3R)-12-[[4-(pyrrolidin-1-yl)cyclohexyl]oxy]-7-thia-9, 11-diazatricyclo[6.4.0.0[2,6]]dodeca-1(8),2(6),9, 11-tetraen-3-yl]acetamide]	> 5.30	≥ 6.30	6.00 to 6.30	≤ 6.00	–	–
Cn1cc(Nc2nc(O[C@H]3CC[C@H](N4CCOCC4)CC3)c3c4c(sc3n2)CC[C@@H]4CC(N)=O)cn1 [Compound I-235]	–	≥ 6.30	≥ 6.30	≤ 6.00	≤ 6.00	–
CN(C)[C@H]1CC[C@H](Oc2ncnc3sc4c(c23)CN(S(C)(=O)=O)CC4)CC1 [Compound I-168, 4-([12-methanesulfonyl-8-thia-4,6,12-triazatricyclo[7.4.0.0-[2,7]]trideca-1(9),2(7),3,5-tetraen-3-yl]oxy)-N,N-dimethylcyclohexan-1-amine]	> 5.30	≤ 5.30	≤ 5.30	–	–	–
CN(C)[C@H]1CC[C@H](Nc2ncnc3sc4c(c23)C[C@@H](C(N)=O)CC4)CC1 [Compound I-230, (12S)-3-[[4-(dimethylamino)cyclohexyl]amino]-8-thia-4,6-diazatricyclo[7.4.0.0[2,7]]trideca-1(9),2(7),3,5-tetraene-12-carboxamide]	> 5.30	≤ 5.30	≤ 5.30	–	–	–
CC[C@@H](O)C[C@H]1CCc2sc3ncnc(O[C@H]4CC[C@H](N(C)CC(=O)N5CCCC5)CC4)c3c21 [Compound I-71, 2-[(4-[[(3R)-3-[(2R)-2-hydroxybutyl]-7-thia-9,11-diazatricyclo[6.4.0.0[2,6]]dodeca-1(8),2(6),9,11-tetraen-12-yl]oxy]cyclohexyl)(methyl)amino]-1-(pyrrolidin-1-yl)ethan-1-one]	> 5.30	5.30 to 6.00	6.00 to 6.30	–	–	–
NC(=O)C(F)(F)C[C@H]1CCc2sc3ncnc(O[C@H]4CC[C@H](N5CCOCC5)CC4)c3c21 [Compound I-142, 2,2-difluoro-3-((R)-4-(((1r,4R)-4-morpholinocyclohexyl)oxy)-6,7-dihydro-5H-cyclopenta[4,5]thieno[2,3-d]pyrimidin-5-yl)propanamide]	> 5.30	≥ 6.30	≥ 6.30	–	–	–
CN(CCc1ccccn1)[C@H]1CC[C@H](Oc2ncnc3sc4c(c23)[C@@H](CC(N)=O)CC4)CC1 [Compound I-128, 2-((R)-4-(((1 r,4R)-4-(methyl(2-(pyridin-2-yl)ethyl)amino)cyclohexyl)oxy)-6,7-dihydro-5H-cyclopenta[4,5]thieno[2,3-d]pyrimidin-5-yl)acetamide]	> 5.30	6.00 to 6.30	5.30 to 6.00	–	–	–

Results, then the compound that gave them:

pIC50 [1]	pIC50 ([2]; read-out: IL8 production IC50)	pIC50 ([2]; read-out: TNFα production IC50)	pIC50 [3, 4]	pIC50 [3, 5]	pIC50 [3, 6]	SMILES
> 5.30	5.30 to 6.00	5.30 to 6.00	≤ 6.00	–	–	CN(CC(=O)N1CCCC1)[C@H]1CC[C@H](Oc2ncnc3sc4c(c23)[C@@H](CC(N)=O)CC4)CC1 [Compound I-73, 2-[(3R)-12-[(4-[methyl[2-oxo-2-(pyrrolidin-1-yl)ethyl]amino]cyclohexyl)oxy]-7-thia-9,11-diazatricyclo[6.4.0.0[2,6]]dodeca-1(8),2(6),9,11-tetraen-3-yl]acetamide]
–	≥ 6.30	≥ 6.30	≤ 6.00	≤ 6.00	–	Cn1cc(Nc2nc(O[C@H]3CC[C@H](N(C)C)CC3)c3c4c(sc3n2)CCC4CC(N)=O)cn1 (stereo in doubt) [Compound I-224, 2-[(3S)-12-[[4-(dimethylamino)cyclohexyl]oxy]-10-[(1-methyl-1H-pyrazol-4-yl)amino]-7-thia-9,11-diazatricyclo[6.4.0.0[2,6]]dodeca-1(8),2(6),9,11-tetraen-3-yl]acetamide]
> 5.30	≥ 6.30	≥ 6.30	≤ 6.00	≤ 6.00	≤ 6.00	NC(=O)[C@H]1CCc2sc3ncnc(O[C@H]4CC[C@H](N5CCOCC5)CC4)c3c2C1 [Compound I-220, (12S)-3-[[4-(morpholin-4-yl)cyclohexyl]oxy]-8-thia-4,6-diazatricyclo[7.4.0.0[2,7]]trideca-1(9),2(7),3,5-tetraene-12-carboxamide]
> 5.30	5.30 to 6.00	5.30 to 6.00	–	–	–	C[C@H](O)C[C@H]1CCc2sc3ncnc(O[C@H]4CC[C@H](N(C)C)CC4)c3c21 [Compound I-40, (2S)-1-[(3R)-12-[[4-(dimethylamino)cyclohexyl]oxy]-7-thia-9,11-diazatricyclo[6.4.0.0[2,61]]dodeca-1(8),2(6),9,11-tetraen-3-yl]propan-2-ol]
> 5.30	≥ 6.30	6.00 to 6.30	–	–	–	CN(C)[C@H]1CC[C@H](Oc2ncnc3sc4c(c23)C[C@H](CCO)CC4)CC1 [Compound I-110, 2-[(12R)-3-[[4-(dimethylamino)cyclohexyl]oxy]-8-thia-4,6-diazatricyclo[7.4.0.0[2,7]]trideca-1(9),2(7),3,5-tetraen-12-yl]ethan-1-ol formate]
> 5.30	6.00 to 6.30	6.00 to 6.30	≤ 6.00	–	–	CCN[C@H]1CC[C@H](Oc2ncnc3sc4c(c23)[C@@H](CC(N)=O)CC4)CC1 [Compound I-85, 2-((R)-4-(((1r,4R)-4-(ethylamino)cyclohexyl)oxy)-6,7-dihydro-5H-cyclopenta[4,5]thieno[2,3-d]pyrimidin-5-yl)acetamide]
> 5.30	–	≤ 5.30	–	–	–	CN(CC(=O)N1CCCC1)[C@H]1CC[C@H](Oc2ncnc3sc4c(c23)[C@@H](CCC(N)=O)CC4)CC1 [Compound I-94, 3-((S)-4-(((1r,4S)-4-(methyl(2-oxo-2-(pyrrolidin-1-yl)ethyl)amino)cyclohexyl)oxy)-6,7-dihydro-5H-cyclopenta[4,5]thieno[2,3-d]pyrimidin-5-yl)propanamide]
> 5.30	5.30 to 6.00	5.30 to 6.00	–	–	–	CN(C)[C@H]1CC[C@H](Oc2ncnc3sc4c(c23)[C@@H](C[C@H](O)C(=O)NCO)CC4)CC1 [Compound I-100, (S)-3-((R)-4-(((1r,4R)-4-(dimethylamino)cyclohexyl)oxy)-6,7-dihydro-5H-cyclopenta[4,5]thieno[2,3-d]pyrimidin-5-yl)-2-hydroxy-N-(hydroxymethyl)propanamide]
> 5.30	6.00 to 6.30	6.00 to 6.30	–	–	–	CN[C@H]1CC[C@H](Oc2ncnc3sc4c(c23)[C@@H](C[C@H](O)C(N)=O)CC4)CC1 [Compound I-137, (2S)-2-hydroxy-3-[(3R)-12-[[4-(methylamino)cyclohexyl]oxy]-7-thia-9,11-diazatricyclo[6.4.0.0[2,6]]dodeca-1(8),2(6),9,11-tetraen-3-yl]propanamide]
> 5.30	≥ 6.30	≥ 6.30	–	–	–	CN(C)[C@H]1CC[C@H](Oc2ncnc3sc4c(c23)[C@@H](CCC#N)CC4)CC1 [Compound I-42, 3-[(3S)-12-[[4-(dimethylamino)cyclohexyl]oxy]-7-thia-9,11-diazatricyclo 1[6.4.0.0[2,6]]dodeca-1(8),2(6),9,11-tetraen-3-yl]propanenitrile]
